In patent publication US20250367084A1, “Micellar Composition” (Phytoceutical Limited, priority 2022, published 2025):

Experiments:
[1] = cited from earlier work
[2] = system: adult human dermal fibroblast (HDFa) cells; assay: Cytotoxicity of retinol (Presto Blue / WST-1); format: cell-based; settings: 24 h exposure
Experimental: The cytotoxicity of retinol was determined.
Experiment 1: A solution of retinol (20 mg/mL) in ethanol (absolute) was prepared. The solution was diluted to 2 mg/mL, forming a light yellow emulsion. The emulsion was diluted in optiMem to provide concentrations of 5, 2.5, 1.25, 0.625 and 0.31 μg/mL retinol. Untreated and detergent controls were included for comparison. Using a Presto Blue assay, adult human dermal fibroblast (HDFa) cells (5 k per well) were exposed to the solutions for 24 h.
Experiment 2: A solution of retinol (20 mg/mL) in 1,2-propanediol was prepared. The solution was diluted to 2 mg/mL, forming an off-white emulsion. The emulsion was diluted in optiMem to provide concentrations of 10, 5, 2.5, 1.25, 0.625 and 0.31 μg/mL retinol. Untreated and detergent controls were included for comparison. Using a WST-1 probe, HDFa cells (5 k per well) were exposed to the solutions for 24 h.
Experiment 3: A solution of retinol (20 mg/mL) in ethanol (absolute) was prepared. The solution was diluted to 2 mg/mL, forming an light yellow emulsion. The emulsion was diluted in optiMem to provide concentrations of 10, 5, 2.5, 1.25, 0.625 and 0.31 μg/mL retinol. Untreated and detergent controls were included for comparison. Using a WST-1 probe, HDFa cells (5 k per well) were exposed to the solutions for 24 h.

## C=C(C)[C@@H]1CCC(C)=C[C@H]1c1c(O)cc(CCCCC)cc1O [CBD, cannabidiol]
[1]
  log P: ~6.3

## CC1=C(/C=C/C(C)=C/C=C/C(C)=C/CO)C(C)(C)CCC1 [retinol, Retinol]
[2]; 5 k cells per well
  concentration at which retinol is cytotoxic to the HDFa cell line: ≥ 10000 ng/mL
[2]; concentration below 10 μg/mL
  cytotoxicity at concentration below 10 μg/mL: only little, if any, cytotoxicity
